Source: publication PMC8617627, “Novel DYRK1A Inhibitor Rescues Learning and Memory Deficits in a Mouse Model of Down Syndrome” (Pharmaceuticals, 2021)
Like-named read-outs stand apart in the source and are kept apart here.

Assays:
Test in all cases: Kinase profile (33P ATP filter binding)
Format in all cases: biochemical
PKBb = PKBb (Homo sapiens, UniProt P31751); details: read-out: Remaining protein kinase activity
Procedure: (§1) The compounds were diluted to the appropriate concentration. The compounds were added to a “mother plate” consisting of samples, controls, and blanks. These serve as the source for “daughter plates” which are stored at −20 °C until assay initiation. Protein Kinases: Enzyme/Substrate mixture was added to the compound, and the compounds were incubated for five minutes at room temperature (RT). ^33P ATP was added to the compounds to initiate the assay. Orthophosphoric acid was added to the compounds to halt the assay. Assay components were harvested onto P81 filter plates, filter plates were air-dried, scintillation fluid was added to plates, and counts were read on a Topcount NXT. A mean percentage activity was calculated.

EF2K = molecular target: T1, EF2K (Homo sapiens, UniProt O00418); details: read-out: Remaining protein kinase activity
T1 sequence (O00418 1-725): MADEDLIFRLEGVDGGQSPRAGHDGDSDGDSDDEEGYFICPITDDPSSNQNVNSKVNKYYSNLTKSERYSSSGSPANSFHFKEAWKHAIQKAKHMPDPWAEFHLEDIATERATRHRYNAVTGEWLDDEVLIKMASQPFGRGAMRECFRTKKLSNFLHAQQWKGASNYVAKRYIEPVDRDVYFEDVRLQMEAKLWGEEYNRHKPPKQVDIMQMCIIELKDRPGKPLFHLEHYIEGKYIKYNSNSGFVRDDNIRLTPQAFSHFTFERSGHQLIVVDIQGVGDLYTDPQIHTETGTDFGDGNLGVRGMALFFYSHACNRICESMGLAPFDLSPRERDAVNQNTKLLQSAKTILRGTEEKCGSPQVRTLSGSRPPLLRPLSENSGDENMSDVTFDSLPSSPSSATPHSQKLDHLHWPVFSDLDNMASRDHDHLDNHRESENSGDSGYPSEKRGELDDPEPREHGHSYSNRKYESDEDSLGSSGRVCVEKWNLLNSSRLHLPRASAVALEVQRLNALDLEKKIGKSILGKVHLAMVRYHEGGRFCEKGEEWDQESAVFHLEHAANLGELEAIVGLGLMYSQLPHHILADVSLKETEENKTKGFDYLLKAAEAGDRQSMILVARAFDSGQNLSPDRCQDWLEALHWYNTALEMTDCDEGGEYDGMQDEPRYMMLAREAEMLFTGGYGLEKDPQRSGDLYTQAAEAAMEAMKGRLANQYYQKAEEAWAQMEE
Procedure: as §1

PKCa = PKCa (Homo sapiens, UniProt P17252); details: read-out: Remaining protein kinase activity
Procedure: as §1

WNK1 = WNK1 (Homo sapiens, UniProt Q9H4A3)
WNK1, sequence (Q9H4A3 whole entry): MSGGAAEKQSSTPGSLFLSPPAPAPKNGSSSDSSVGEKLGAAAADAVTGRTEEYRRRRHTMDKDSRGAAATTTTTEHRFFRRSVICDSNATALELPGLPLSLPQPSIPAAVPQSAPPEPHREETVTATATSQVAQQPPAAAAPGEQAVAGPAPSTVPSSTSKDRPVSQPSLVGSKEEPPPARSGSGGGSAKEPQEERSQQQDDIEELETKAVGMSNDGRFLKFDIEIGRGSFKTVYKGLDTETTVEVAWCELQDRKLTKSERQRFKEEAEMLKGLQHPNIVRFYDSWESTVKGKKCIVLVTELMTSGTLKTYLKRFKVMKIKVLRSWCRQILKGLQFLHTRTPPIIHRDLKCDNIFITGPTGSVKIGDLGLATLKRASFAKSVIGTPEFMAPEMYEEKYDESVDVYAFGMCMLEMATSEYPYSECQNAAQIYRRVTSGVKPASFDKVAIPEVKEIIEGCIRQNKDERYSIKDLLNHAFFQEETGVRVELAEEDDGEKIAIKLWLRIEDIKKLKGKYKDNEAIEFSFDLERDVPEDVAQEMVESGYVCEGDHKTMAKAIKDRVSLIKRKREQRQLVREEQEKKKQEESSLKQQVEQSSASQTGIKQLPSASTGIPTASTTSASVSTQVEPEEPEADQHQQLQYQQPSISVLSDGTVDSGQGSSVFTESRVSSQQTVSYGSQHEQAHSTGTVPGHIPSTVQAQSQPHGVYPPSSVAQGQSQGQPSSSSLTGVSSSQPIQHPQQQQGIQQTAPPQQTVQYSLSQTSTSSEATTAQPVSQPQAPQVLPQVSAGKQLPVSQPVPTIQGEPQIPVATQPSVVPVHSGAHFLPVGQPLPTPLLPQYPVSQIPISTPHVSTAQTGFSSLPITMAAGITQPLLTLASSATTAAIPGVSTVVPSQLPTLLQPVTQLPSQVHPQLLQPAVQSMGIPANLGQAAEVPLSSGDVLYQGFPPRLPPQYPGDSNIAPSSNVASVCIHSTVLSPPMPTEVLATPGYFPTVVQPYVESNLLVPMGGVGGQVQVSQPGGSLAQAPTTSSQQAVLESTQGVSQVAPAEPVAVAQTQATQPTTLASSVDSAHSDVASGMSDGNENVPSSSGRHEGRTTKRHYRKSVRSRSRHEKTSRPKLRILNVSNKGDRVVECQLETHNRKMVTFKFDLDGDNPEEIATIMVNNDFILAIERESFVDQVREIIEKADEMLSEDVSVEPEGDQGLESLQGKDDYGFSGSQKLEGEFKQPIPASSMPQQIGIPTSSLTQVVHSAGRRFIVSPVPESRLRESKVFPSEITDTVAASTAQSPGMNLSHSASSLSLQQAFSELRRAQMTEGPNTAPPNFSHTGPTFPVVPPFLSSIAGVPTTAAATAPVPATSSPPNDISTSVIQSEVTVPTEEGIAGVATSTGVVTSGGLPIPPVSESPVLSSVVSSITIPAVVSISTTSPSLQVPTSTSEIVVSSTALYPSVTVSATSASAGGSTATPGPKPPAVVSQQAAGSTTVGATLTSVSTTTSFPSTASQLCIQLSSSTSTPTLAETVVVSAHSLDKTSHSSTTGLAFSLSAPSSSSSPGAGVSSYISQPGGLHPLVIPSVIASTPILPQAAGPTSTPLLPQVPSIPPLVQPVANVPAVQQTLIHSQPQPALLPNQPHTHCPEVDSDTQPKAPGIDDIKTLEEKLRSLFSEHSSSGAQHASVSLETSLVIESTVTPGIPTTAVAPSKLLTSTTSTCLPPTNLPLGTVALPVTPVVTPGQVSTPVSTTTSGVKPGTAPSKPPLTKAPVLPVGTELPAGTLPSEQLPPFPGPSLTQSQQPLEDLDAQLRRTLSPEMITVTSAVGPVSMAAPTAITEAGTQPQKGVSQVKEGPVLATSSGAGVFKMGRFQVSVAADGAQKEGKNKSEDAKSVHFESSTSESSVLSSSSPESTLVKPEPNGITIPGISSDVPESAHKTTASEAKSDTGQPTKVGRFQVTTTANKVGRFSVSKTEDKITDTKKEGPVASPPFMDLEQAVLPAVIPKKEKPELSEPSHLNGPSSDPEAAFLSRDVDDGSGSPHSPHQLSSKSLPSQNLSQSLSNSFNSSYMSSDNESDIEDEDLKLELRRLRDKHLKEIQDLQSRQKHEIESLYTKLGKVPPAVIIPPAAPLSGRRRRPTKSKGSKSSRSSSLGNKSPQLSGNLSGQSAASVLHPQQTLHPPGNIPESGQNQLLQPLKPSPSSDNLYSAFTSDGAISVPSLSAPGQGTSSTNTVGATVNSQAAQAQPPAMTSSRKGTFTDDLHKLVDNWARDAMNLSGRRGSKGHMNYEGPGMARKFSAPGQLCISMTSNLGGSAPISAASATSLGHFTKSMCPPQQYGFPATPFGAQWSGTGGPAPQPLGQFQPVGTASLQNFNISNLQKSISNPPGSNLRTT
Procedure: as §1

CHK1 = molecular target: T2, CHK1 (Homo sapiens, UniProt O14757)
T2 sequence (O14757 1-476): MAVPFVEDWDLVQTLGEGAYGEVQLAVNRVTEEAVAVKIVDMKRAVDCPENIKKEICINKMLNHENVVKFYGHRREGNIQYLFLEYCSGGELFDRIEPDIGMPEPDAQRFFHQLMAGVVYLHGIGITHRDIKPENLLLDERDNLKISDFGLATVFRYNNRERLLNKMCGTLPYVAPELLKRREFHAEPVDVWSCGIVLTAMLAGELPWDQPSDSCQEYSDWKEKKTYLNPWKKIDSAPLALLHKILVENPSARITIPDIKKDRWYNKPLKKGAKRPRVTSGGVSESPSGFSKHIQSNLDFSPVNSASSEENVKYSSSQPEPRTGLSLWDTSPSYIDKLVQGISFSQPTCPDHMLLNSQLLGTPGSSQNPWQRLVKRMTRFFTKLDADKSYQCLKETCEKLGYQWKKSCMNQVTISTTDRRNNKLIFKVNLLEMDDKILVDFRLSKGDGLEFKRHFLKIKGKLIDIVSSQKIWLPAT
Procedure: as §1

RSK1 = RSK1 (Homo sapiens, UniProt Q15418); details: read-out: Remaining protein kinase activity
RSK1, sequence (Q15418 whole entry, species assumed): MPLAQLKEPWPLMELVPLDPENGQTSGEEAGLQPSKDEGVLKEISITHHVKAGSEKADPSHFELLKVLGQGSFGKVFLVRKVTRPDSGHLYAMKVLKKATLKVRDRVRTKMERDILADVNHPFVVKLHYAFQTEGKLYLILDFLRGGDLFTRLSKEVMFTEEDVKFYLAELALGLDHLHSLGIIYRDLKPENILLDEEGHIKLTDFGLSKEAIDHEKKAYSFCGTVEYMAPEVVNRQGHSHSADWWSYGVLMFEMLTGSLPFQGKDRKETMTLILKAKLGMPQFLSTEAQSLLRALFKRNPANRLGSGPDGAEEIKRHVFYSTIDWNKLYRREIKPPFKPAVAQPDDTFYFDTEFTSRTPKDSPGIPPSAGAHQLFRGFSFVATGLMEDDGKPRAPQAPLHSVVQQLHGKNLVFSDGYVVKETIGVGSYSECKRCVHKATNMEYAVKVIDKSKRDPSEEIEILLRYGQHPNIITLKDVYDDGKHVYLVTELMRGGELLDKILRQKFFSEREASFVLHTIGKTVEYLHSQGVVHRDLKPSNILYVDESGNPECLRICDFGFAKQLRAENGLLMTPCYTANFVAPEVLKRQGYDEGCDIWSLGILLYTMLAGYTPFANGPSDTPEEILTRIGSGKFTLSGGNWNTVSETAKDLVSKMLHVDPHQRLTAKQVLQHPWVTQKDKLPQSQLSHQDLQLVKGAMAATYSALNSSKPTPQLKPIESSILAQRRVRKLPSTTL
Procedure: as §1

TAO1 = molecular target: T3, TAO1 (Homo sapiens, UniProt Q7L7X3); details: read-out: Remaining protein kinase activity
T3 sequence (Q7L7X3 1-1001): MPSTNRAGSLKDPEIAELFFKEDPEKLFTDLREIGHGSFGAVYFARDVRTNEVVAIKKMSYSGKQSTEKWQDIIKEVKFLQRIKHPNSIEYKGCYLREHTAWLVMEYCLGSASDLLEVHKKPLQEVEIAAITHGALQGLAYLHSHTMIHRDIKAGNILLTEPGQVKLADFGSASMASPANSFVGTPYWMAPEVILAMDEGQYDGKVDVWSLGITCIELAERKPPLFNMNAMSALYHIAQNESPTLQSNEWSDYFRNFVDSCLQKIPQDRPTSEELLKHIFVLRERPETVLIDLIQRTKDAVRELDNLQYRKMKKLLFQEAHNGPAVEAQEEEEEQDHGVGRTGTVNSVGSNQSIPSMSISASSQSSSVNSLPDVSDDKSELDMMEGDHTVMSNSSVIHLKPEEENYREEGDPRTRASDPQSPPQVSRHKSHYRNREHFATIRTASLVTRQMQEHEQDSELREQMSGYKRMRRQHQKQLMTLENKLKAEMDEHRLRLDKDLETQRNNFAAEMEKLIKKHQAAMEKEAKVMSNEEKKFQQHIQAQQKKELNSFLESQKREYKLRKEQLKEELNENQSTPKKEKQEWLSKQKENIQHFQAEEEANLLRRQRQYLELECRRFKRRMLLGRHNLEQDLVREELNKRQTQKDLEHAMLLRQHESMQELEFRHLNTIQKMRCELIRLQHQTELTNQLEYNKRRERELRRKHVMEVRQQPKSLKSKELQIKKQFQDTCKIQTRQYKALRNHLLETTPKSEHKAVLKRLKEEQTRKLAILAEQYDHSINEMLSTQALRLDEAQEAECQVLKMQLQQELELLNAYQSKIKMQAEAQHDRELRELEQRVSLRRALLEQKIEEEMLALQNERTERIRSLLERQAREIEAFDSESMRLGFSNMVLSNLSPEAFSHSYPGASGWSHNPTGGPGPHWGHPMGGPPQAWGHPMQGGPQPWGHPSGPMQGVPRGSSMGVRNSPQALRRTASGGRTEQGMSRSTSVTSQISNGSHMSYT
Procedure: as §1

PAK4 = PAK4 (Homo sapiens, UniProt O96013); details: read-out: Remaining protein kinase activity
PAK4, sequence (O96013 whole entry): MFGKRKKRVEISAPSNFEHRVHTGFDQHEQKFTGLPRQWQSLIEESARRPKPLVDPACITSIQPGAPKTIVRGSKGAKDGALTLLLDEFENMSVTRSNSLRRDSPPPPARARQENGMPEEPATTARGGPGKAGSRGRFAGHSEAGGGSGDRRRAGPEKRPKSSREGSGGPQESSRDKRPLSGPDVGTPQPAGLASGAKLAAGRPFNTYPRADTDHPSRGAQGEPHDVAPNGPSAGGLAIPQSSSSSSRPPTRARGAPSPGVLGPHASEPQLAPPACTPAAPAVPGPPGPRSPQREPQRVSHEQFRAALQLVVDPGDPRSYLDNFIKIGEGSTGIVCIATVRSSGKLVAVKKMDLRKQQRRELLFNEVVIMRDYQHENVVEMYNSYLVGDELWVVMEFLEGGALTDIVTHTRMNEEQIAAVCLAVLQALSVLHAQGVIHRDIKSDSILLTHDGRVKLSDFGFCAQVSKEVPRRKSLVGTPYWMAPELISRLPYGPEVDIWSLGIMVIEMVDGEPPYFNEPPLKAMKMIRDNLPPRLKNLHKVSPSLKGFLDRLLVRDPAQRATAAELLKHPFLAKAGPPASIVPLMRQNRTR
Procedure: as §1

PKBb, sequence (P31751 whole entry): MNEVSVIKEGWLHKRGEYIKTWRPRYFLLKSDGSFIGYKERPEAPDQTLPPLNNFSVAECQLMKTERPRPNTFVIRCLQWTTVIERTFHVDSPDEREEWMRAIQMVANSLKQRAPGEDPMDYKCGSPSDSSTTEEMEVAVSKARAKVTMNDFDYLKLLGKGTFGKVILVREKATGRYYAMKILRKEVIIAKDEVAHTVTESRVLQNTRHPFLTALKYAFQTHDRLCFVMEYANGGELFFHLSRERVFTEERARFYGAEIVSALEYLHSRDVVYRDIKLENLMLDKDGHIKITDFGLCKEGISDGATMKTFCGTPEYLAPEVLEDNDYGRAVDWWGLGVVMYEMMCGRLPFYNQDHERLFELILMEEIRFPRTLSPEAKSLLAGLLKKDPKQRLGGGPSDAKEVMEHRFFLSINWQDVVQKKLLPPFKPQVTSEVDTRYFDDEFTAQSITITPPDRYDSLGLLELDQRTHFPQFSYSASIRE

COc1ccc2sc(-c3cncc(NC(C)=O)c3)nc2c1 [PST-001, N-(5-(5-Methoxybenzo[d]thiazol-2-yl)pyridin-3-yl)acetamide]
remaining activity at 1 µM (PKBb): 112%
remaining activity at 100 µM (PKBb): 98%
remaining activity at 1 µM (EF2K): 113%
remaining activity at 100 µM (EF2K): 106%
remaining activity at 1 µM (PKCa): 119%
remaining activity at 100 µM (PKCa): 85%
Remaining protein kinase activity (WNK1; 1 μM): 127%
Remaining protein kinase activity (WNK1; 100 μM): 118%
Remaining protein kinase activity (CHK1; 1 μM): 104%
Remaining protein kinase activity (CHK1; 100 μM): 115%
remaining activity at 1 µM (RSK1): 99%
remaining activity at 100 µM (RSK1): 88%
remaining activity at 1 µM (TAO1): 102%
remaining activity at 100 µM (TAO1): 111%
remaining activity at 1 µM (PAK4): 116%
remaining activity at 100 µM (PAK4): 98%

COc1ccc2sc(-c3cncc(N)c3)nc2c1 [compound 1, 5-(5-Methoxybenzo[d]thiazol-2-yl)pyridin-3-amine]
remaining activity at 1 µM (PKBb; PKBb, 1 μM): 123%
remaining activity at 100 µM (PKBb; PKBb, 100 μM): 15%
remaining activity at 1 µM (EF2K; EF2K, 1 μM): 112%
remaining activity at 100 µM (EF2K; EF2K, 100 μM): 84%
remaining activity at 1 µM (PKCa; PKCa, 1 μM): 110%
remaining activity at 100 µM (PKCa; PKCa, 100 μM): 63%
Remaining protein kinase activity (WNK1; 1 μM): 116%
Remaining protein kinase activity (WNK1; 100 μM): 113%
Remaining protein kinase activity (CHK1; 1 μM): 101%
Remaining protein kinase activity (CHK1; 100 μM): 86%
remaining activity at 1 µM (RSK1; RSK1, 1 μM): 99%
remaining activity at 100 µM (RSK1; RSK1, 100 μM): 42%
remaining activity at 1 µM (TAO1; TAO1, 1 μM): 97%
remaining activity at 100 µM (TAO1; TAO1, 100 μM): 57%
remaining activity at 1 µM (PAK4; PAK4, 1 μM): 109%
remaining activity at 100 µM (PAK4; PAK4, 100 μM): 54%
